System: human iPSC-derived astrocytes
Test: Oxygen consumption (mitochondrial respiration) in human iPSC-derived astrocytes, Seahorse XF96
Type: cell-based
Conditions: hiPSC-derived astrocytes; NR 0.5 mM for 24 hours; ketone bodies BHB (0.5 mM or 2 mM) or BHP for 1 h in KRBH 1 mM glucose; uncoupled with FCCP 1 μM; FIG. 6
Experimental: Differentiated human iPSC astrocytes were obtained from Cellular Dynamics International (CDI, Madison, Wis., USA). The cells were thawed according to the manufacturer's instructions. iCell astrocytes were cultured in DMEM supplemented with 10% fetal calf serum and N2 complement. Oxygen consumption in human iPSC-derived astrocytes was measured in a Seahorse XF96 instrument (Seahorse Bioscience, North Billerica, Mass., USA). Astrocytes were seeded directly into Seahorse 96-well tissue culture plates (XF96 FluxPaks no. 102416-100; Seahorse Bioscience) at a density of 40,000 cells per well. Cells were incubated for 24 hours with 0.5 mM of Nicotinamide riboside chloride (NR) or fresh medium before experiment. Four days after seeding, the cells were washed twice in KRBH 1 mM glucose and incubated for 1 h with the ketone bodies BHB (racemic (D,L) BHB) or BHP (D BHP) at the concentration indicated. The cells were maintained at 37° C. during the experiment. Mitochondrial respiration rates were determined every 6 minutes. […] The oxygen consumption rate in hiPSC-derived astrocytes was measured as an indication of mitochondrial function, using a Seahorse instrument. Through addition of the uncoupling agent FCCP, uncoupled (=maximal) respiration was determined.

NC(=O)c1ccc[n+]([C@@H]2O[C@H](CO)[C@@H](O)[C@H]2O)c1 [NR, Nicotinamide riboside chloride]
maximal (uncoupled) respiration, oxygen consumption rate: Neither ketone bodies alone nor NR treatment significantly increases maximal respiration

From patent US20210267251A1, “COMPOSITIONS AND METHODS USING A NICOTINAMIDE ADENINE DINUCLEOTIDE (NAD+) PRECURSOR AND AT LEAST ONE KETONE OR KETONE PRECURSOR” (SOCIETE DES PRODUITS NESTLE S.A., priority 2018, published 2021)
